# Values joined by “and” are separate entries in the source; they are usually repeats but may differ in a detail not shown here. Equal values may be shown once. “Also recorded” adds a separate entry of the source. Read-outs that look alike come from different tables or passages of the source.
# Key:
# [1] = system: C. parvum invasion of HCT-8 host cells; assay: HCT-8 host cell invasion assay; type: cell-based, Cryptosporidium parvum; conditions: HCT-8 host cells, 3 h
# Method: The invasion assay, DNA replication assay, asexual to sexual stage conversion, and time-kill curve assays were performed using fluorescence microscopy to enumerate parasites and host cell nuclei. Staining protocols are individually described for each assay. Unless noted otherwise, the details of image acquisition were as follows. An inverted Nikon Eclipse Ti2000 microscope with an automated stage and Perfect Focus was used with NIS-Elements Advanced Research software (Nikon, USA, version 4.30.01) to image the wells. The microscope was programmed to focus on the center of each well and then take a 3 × 3 composite image per well using a 20 × (0.45 NA) objective. Images were exported as .tiff files and parasites and host nuclei counted using a custom macro on ImageJ (National Institutes of Health, version 1.52a). Data were analyzed using Microsoft Excel and GraphPad Prism (version 6.01).
# Host cell invasion was assayed by allowing C. parvum to invade host cell monolayers in the presence of compound, and enumerating parasites and host cells after just 3 h (i.e., before completion of a parasite division cycle)[38]. HCT-8 cells were grown in RPMI media supplemented with 120 U per mL penicillin and 120 μg per mL streptomycin and 10% heat inactivated fetal bovine serum (complete media) and C. parvum Iowa isolate oocysts from Bunch Grass Farms (Deary, ID) were used for infection. When cells reached a confluence of >99%, media was removed and replaced with 25 µL per well of fresh media containing twice the indicated concentrations of compounds and incubated for 1 h at 37 °C in a humidified CO2 incubator. In the meantime, oocysts were induced for excystation by first treating with 10 mM hydrochloric acid (diluted with distilled water) for 10 min at 37 °C followed by 2 mM sodium taurocholate (in phosphate buffered saline (PBS) with calcium and magnesium) for 10 min at 16 °C. Before and after each treatment, oocysts were spun down at 14,000 × g for 4.5 min and supernatant was removed. […]
# in vivo = conditions: male, Sprague-Dawley, rat, po
# Method: A repeated oral dose toxicity and separate toxicokinetics (TK) study were performed in male rats by WuXi AppTec Company (Suzhou, China). […] Animals were individually housed in solid bottom plastic cages with bedding in compliance with the US Animal Welfare Act. All rat studies were performed using ∼8-week-old Sprague-Dawley male rats (Rattus novegicus)/Crl: CD[SD] […] Cage side clinical observations of condition and behavior (i.e., gait, stool, activity level, atonia, coat soiling and grooming, skin turgor, posture, priapism, piloerection) were performed twice daily during the dosing phase, and weights and food consumption were measured daily. At termination, all study animals were evaluated for erythrocyte count, absolute reticulocyte count, alkaline phosphatase, and triglycerides by fasting the animals overnight and obtaining blood from the abdominal aorta at necropsy as a terminal procedure under deep anesthesia (pentobarbital). A complete necropsy and histopathologic studies (hematoxylin and eosin staining) of large intestine, small intestine, stomach, and any gross lesions were performed on all animals on day 7 of dosing. […] Serum was collected from vehicle-control animals at 1 h and 4 h after dosing on days 1 and 7. […] Following completion of blood collection, TK animals were euthanized by CO2 inhalation and exsanguination without necropsy.
# [2] = Liver microsome Clint (human); type: in vitro ADME; conditions: liver microsomes
# C. parvum = C. parvum growth inhibition in HCT-8 cells (follow-up assay, Vicia villosa lectin staining); type: cell-based, Cryptosporidium parvum
# Method: Follow-up assays were performed at the University of Vermont (UVM) and Calibr at Scripps Research by infection of the colonic adenocarcinoma cell line HCT-8 (ATCC CCL-244) and staining with the Vicia villosa lectin and DAPI[17],[32]. The FBS concentrations and parasites used for these assays were as indicated; parasite isolates and sources included C. parvum Iowa isolate oocysts purchased from Bunch Grass Farm (Deary, ID), C. parvum Iowa isolate oocysts purchased from the Sterling Laboratory (University of Arizona, Tucson, AZ), wild type C. parvum oocysts provided by Dr. Jenni Zambriski (Virginia Tech, Blacksburg, VA), and the C. hominis TU502 isolate purchased from Dr. Saul Tzipori (Tufts University Cummings School of Veterinary Medicine, North Grafton, MA). […] Amphotericin B (Sigma, catalog# A2942) was added to the culture media at 0.1 to 0.5 µg per mL for the DMC1 dose response assays.
# hERG K+ ion channel = target: T1, hERG K+ ion channel (Homo sapiens, UniProt Q12809); assay: hERG radioligand binding competition; conditions: 10 µM test compound, 1 h at 25 °C
# T1 construct: Ricerca Biosciences (Taipei, Taiwan), contract laboratory
# T1 sequence (Q12809 whole entry): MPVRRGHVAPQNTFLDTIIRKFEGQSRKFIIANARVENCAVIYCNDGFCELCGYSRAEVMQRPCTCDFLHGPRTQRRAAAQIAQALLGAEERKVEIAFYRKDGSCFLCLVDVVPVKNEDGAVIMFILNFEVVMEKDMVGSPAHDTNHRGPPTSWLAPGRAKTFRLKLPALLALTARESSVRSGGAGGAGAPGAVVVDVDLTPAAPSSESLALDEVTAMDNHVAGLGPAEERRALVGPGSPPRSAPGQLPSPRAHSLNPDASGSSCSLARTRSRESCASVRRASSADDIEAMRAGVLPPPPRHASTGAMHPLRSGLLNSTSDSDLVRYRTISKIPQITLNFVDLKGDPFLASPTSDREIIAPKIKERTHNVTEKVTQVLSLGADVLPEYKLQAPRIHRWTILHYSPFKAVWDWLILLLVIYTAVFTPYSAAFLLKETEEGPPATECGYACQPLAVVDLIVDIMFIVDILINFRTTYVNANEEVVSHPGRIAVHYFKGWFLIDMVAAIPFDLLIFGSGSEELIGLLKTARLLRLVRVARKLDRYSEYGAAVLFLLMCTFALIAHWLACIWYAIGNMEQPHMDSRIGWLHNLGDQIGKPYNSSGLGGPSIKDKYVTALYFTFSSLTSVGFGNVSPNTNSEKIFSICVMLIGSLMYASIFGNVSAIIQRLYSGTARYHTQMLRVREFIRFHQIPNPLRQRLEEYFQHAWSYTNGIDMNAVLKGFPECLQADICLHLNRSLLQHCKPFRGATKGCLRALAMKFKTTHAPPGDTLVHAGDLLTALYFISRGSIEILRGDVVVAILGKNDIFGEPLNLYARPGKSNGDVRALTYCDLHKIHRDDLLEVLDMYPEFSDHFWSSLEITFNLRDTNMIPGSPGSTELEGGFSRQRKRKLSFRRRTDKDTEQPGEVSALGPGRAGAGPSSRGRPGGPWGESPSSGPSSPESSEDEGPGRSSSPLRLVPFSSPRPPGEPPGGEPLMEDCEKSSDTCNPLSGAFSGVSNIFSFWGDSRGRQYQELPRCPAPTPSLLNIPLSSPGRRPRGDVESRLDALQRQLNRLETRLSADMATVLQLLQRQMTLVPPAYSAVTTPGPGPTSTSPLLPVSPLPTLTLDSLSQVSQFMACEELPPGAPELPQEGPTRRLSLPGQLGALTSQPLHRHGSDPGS
# Method: (§1) In vitro safety profiling studies were conducted by Ricerca Biosciences (Taipei, Taiwan) and WuXi AppTec (Suzhou, China). Ricerca performed a Lead Profiling and Adverse Reaction Enzyme panel of 109 off-target enzymes and receptors. This included the hERG K+ ion channel, which is associated with cardiac tachyarrhythmias, and used a radioligand binding competition format with 10 µM test compound for 1 h at 25 °C. For the enzyme and receptor panel, competitive inhibition at 10 µM of test compound was the most common assay format. The AMES bacterial reverse mutation assay detects point mutations in Escherichia coli and Salmonella typhimurium as an indicator of mutagenic activity. Bacterial strains were obtained from Molecular Toxicology (Boone, NC).
# human lymphocytes = assay: In vitro micronucleus genotoxicity assay; type: cell-based; conditions: with and without S9, 3 and 28 h, 0.25 to 260 µg per mL
# [3] = system: 109 off-target enzymes and receptors; assay: Lead Profiling and Adverse Reaction Enzyme off-target panel; type: binding; conditions: 10 µM
# Method: as §1
# [4] = Plasma Protein Binding (mouse); type: in vitro ADME; conditions: read-out: Plasma Protein Binding (PPB) (converted)
compound,measurement,setting,value
CC1(C)OB(O)c2cc(NC(=O)c3ccc(-n4cccn4)cc3Cl)ccc21 [AN7973],activity in C. parvum invasion assay,[1],no activity
same,NOAEL at 7 days,in vivo,> 80 mg/kg/day
same,microsomal CLint,[2],< 1 µL/min/mg
same,EC50,"C. parvum; Bunch Grass Farm (BGF) C. parvum Iowa isolate, HCT-8 cells, 48 h exposure, read-out: EC50",130 nM
same,EC50,"C. parvum; Cryptosporidium parvum, HCT-8, in Vicia villosa, 48 h, Bunch Grass Farm (BGF) C. parvum Iowa isolate, HCT-8 cells, 48 h exposure, read-out: EC50",130 to 430 nM
same,EC50,"C. parvum; Cryptosporidium parvum, HCT-8, in Vicia villosa, Iowa (BGF, 10%FBS), HCT-8, single replicates, unit inferred, read-out: In vitro efficacy (Fig 2b, EC50)",116 nM
same,EC50,"C. parvum; Cryptosporidium parvum, HCT-8, in Vicia villosa, read-out: In vitro efficacy (Fig 2b, EC50)",363 nM
same,EC90,"C. parvum; Cryptosporidium parvum, in Vicia villosa, BGF Iowa isolate, HCT-8",210 nM
same,EC50,"C. parvum; Field isolate (2%FBS), HCT-8, single replicates, unit inferred, read-out: In vitro efficacy (Fig 2b, EC50)",226 nM and 231 nM and 673 nM and 304 nM
same,EC50,"C. parvum; Iowa (BGF, 2%FBS), HCT-8, single replicates, unit inferred, read-out: In vitro efficacy (Fig 2b, EC50)",459 nM and 606 nM and 233 nM and 334 nM
same,EC50,"C. parvum; Iowa (BGF, 10%FBS), HCT-8, single replicates, unit inferred, read-out: In vitro efficacy (Fig 2b, EC50)",163 nM and 128 nM
same,EC50,"C. parvum; Iowa (Sterling Lab, 2%FBS), HCT-8, single replicates, unit inferred, read-out: In vitro efficacy (Fig 2b, EC50)",412 nM and 206 nM and 290 nM and 456 nM and 232 nM
same,"% inhibition, 0 - 48 h V. villosa lectin (asexual)",C. parvum; log [AN7973] 0.22,97.86% and 96.89%
same,"% inhibition, 0 - 48 h V. villosa lectin (asexual)",C. parvum; log [AN7973] 0.52,97.05% and 95.66%
same,"% inhibition, 0 - 48 h V. villosa lectin (asexual)",C. parvum; log [AN7973] 0.70,95.89% and 94.55%
same,"% inhibition, 0 - 48 h V. villosa lectin (asexual)",C. parvum; log [AN7973] 1.00,95.12% and 93.55%
same,"% inhibition, 0 - 48 h V. villosa lectin (asexual)",C. parvum; log [AN7973] -0.25,95.71% and 93.12%
same,"% inhibition, 0 - 48 h V. villosa lectin (asexual)",C. parvum; log [AN7973] -0.73,85.80% and 82.68%
same,"% inhibition, 0 - 48 h V. villosa lectin (asexual)",C. parvum; log [AN7973] -1.69,-8.97% and -7.81%
same,"% inhibition, 0 - 48 h V. villosa lectin (asexual)",C. parvum; log [AN7973] -2.16,-1.87% and -6.19%
same,hERG inhibition,hERG K+ ion channel,negative
same,In vitro micronucleus,human lymphocytes,negative
same,In vitro Receptor Panel (109 targets),[3],Negative; also recorded: no significant findings
same,fraction unbound,[4],0.011
